Patent publication US20030008807A1, “Novel signaling pathway for the production of inflammatory pain and neuropathy” (The Regents of the University of California, priority 2001, published 2003)
Entries after “also recorded” stand apart in the source; their conditions may differ.

Tests used:
[1] = test system: mechanical nociceptive threshold; experiment: Epinephrine-induced mechanical hyperalgesia, Randall-Selitto paw-withdrawal test (Example 1); conditions: intradermal, inhibitor 1 μg plus epinephrine 100 ng, male rats
From the text: The nociceptive flexion reflex (Randall-Selitto paw-withdrawal test) was quantified with a Basile Analge-symeter (Stoelting, Chicago, Ill.), which applies a linearly increasing mechanical force to the dorsum of the rat's hindpaw. The mechanical nociceptive threshold was defined as the force in grams at which the rat withdrew its paw. […] They were allowed to crawl into individual cylindrical Perspex blocks and were lightly restrained there by closing both ends of the cylinder. […] The rats were allowed to acclimatize to the restrainer for 5-10 min, after which the hindpaws were exposed to the test stimulus. Three readings were taken at 5 min intervals, and their mean was considered the baseline threshold. After each drug administration, mechanical paw-withdrawal thresholds were determined again as the mean of three readings taken 20, 25, and 30 min after injection.
Inhibitors were diluted with distilled water before intra-dermal injections into the paw using a 10 μl microsyringe (Hamilton, Reno, Nev.). Injections of peptides (1 μg/2.5 μl) were always preceded by injection of distilled water (2.5 μl) to produce hypo-osmotic shock. […] Paw-withdrawal thresholds were measured again 10, 15, and 20 min after injecting the test agent. The mean of the paw-withdrawal thresholds obtained at these three times was then taken as the mechanical nociceptive threshold at the dose of the test agent used. The effect of each dose a test agent was calculated as the percentage change from baseline.

ERK1/2 = experiment: Epinephrine-stimulated ERK1/2 phosphorylation in cultured rat DRG neurons (Western analysis); assay type: cell-based; conditions: for effect on epinephrine-induced ERK phosphorylation: 1 μM epinephrine 5 min, ICI 118,551 100 nM, U0126 10 μM, H89 1 μM, calphostin C 1 μM
Description: Trypsin was inactivated by adding 100 μg/ml soybean trypsin inhibitor and 2.5 mg/ml MgSO4. The cells were centrifuged at 300×g for 5 min and resuspended culture media containing minimal essential medium (MEM) supplemented with 10% heat-inactivated fetal calf serum, 1×MEM vitamins, and 1000 U/ml each of penicillin and streptomycin. The culture was enriched for neurons by preplating on 100 mm culture dishes pretreated with 0.1 mg/ml poly-DL-ornithine in 15 mM sodium borate buffer. After culture for 15-20 hr, the loosely attached neuronal cells were collected and plated for 3 hr on six-well plates coated with 0.1 mg/ml poly-DL-ornithine and 1 mg/ml laminin.
After drug treatment, cells from neuron-enriched DRG cultures were collected and centrifuged at 300×g for 5 min at 4° C. […] Blots were incubated with anti-phospho-p42/44 MAP kinase antibody (diluted 1:500 in blocking buffer) overnight at 4° C. Blots were rinsed three times in PBS-T and incubated in blocking buffer containing HRP-conjugated goat anti-rabbit IgG (diluted 1:1000; Boehringer Mannheim, Indianapolis, Ind.) for 1 hr at 27° C. Immunoreactive bands were visualized by enhanced chemiluminescence (Amersham Pharmacia Biotech, Piscataway, N.J.). The membranes were then stripped of antibodies by incubation in 200 mM NaOH for 20 min at 27° C. […] After three washes in PBS-T, blots were incubated with HRP-conjugated goat anti-rabbit IgG (diluted 1:1000; Boehringer Mannheim) for 1 hr at 27° C., and immunoreactive bands were visualized by enhanced chemiluminescence and autoradiography. […] Data were normalized by dividing values obtained for phospho-ERK1 and phospho-ERK2 immunoreactivity by the value obtained for total ERK1 immunoreactivity for each sample.

[2] = test system: mechanical nociceptive threshold; experiment: Epinephrine-induced hyperalgesia in gonad-intact and gonadectomized male and female rats (Example 2); conditions: inhibitor 1 μg, epinephrine 100 ng intradermal
Description: The nociceptive flexion reflex was quantified using the Randall-Selitto paw pressure device (Analgesymeter, Stoetling, Chicago, Ill., USA), which applies a linearly increasing mechanical force to the dorsum of the rat's hind paw. The mechanical nociceptive threshold was defined as the force in grams at which the rat withdrew its paw. […] Baseline paw-withdrawal threshold was defined as the mean of six readings before test agents were injected. […] Each group of rats was treated with only one agonist and/or antagonist injected peripherally by the intradermal route. […] All behavioural testing was done between 10.00 and 16.00 h. […] The protein kinase inhibitor was separated from the distilled water by drawing up a small air bubble (<1 μL) into the syringe after drawing up the protein kinase inhibitor but before drawing up the distilled water.
A stock solution of PGE2 (4 mg/mL) was made by dissolving it in 10% ethanol in normal saline; further dilution to 100 ng was made by addition of saline. Final concentration of ethanol was <10%. […] Stock solutions (1 μg/μL) of inhibitors were stored at −20° C. […] Inhibitors were injected at a concentration of 1 μg/2.5 μL.

[3] = test system: mechanical nociceptive threshold; experiment: Prostaglandin E2-induced hyperalgesia in male and female rats (Example 2); assay type: in vivo, rat
From the text: The nociceptive flexion reflex was quantified using the Randall-Selitto paw pressure device (Analgesymeter, Stoetling, Chicago, Ill., USA), which applies a linearly increasing mechanical force to the dorsum of the rat's hind paw. The mechanical nociceptive threshold was defined as the force in grams at which the rat withdrew its paw. The protocols for this procedure have been previously described (Taiwo et al., (1989) The contribution of training to sensitivity in the nociceptive paw-withdrawal test. Brain Res., 487:148-151). Rats were familiarized in the testing procedure, at 5-min intervals for a period of 1 h per day for 3 days in the week preceding the experiment, to decrease variance in nociceptive thresholds (Taiwo et al., (1989), supra). Baseline paw-withdrawal threshold was defined as the mean of six readings before test agents were injected. Each paw was treated as an independent measure (Taiwo et al., (1989), supra) and each experiment was performed on a separate group of rats. Each group of rats was treated with only one agonist and/or antagonist injected peripherally by the intradermal route. It has been shown in previous studies that these agents, which are injected using the protocol described, exert a peripheral rather than central action (Khasar et al., (1995), supra; and, Khasar et al., (1999b), supra). The dose-response relationship for the effect of epinephrine was determined over a dose range of 1 ng-1 μg. All behavioural testing was done between 10.00 and 16.00 h. The blocking agents, with and without epinephrine (Khasar et al., (1999b), supra) or prostaglandin E2 (PGE2) (Aley et al., (1998), supra; Aley & Levine, (1999), supra; and, Aley et al., (2000) Chronic hypersensitivity for inflammatory nociceptor sensitization mediated by the epsilon isozyme of protein kinase C. J. Neurosci., 20:4680-4685), were injected as described previously (Khasar et al., (1995), supra; and, Khasar et al., (1999b), supra). […]

[4] = test system: Taxol-induced hyperalgesia; experiment: Taxol-induced painful peripheral neuropathy, Randall-Selitto paw-withdrawal test; assay type: in vivo, rat; conditions: male and female rats; normal approximately 110 grams
From the text: (§1) The role of Ras-MEK-ERK 1/2 cascade in painful peripheral neuropathy has been evaluated in three rodent models of common clinical conditions in which patients experience painful peripheral neuropathy. The three models are as follows: 1) Taxol® (a major cancer chemotherapy agent)-induced painful peripheral neuropathy (Dina, O. A., et al., (2001) Role of protein kinase C-epsilon and protein kinase A in a model of paclitaxel-induced painful peripheral neuropathy in the rat. Neuroscience 108:507-515); 2) vincristine (another cancer chemotherapy agent)-induced painful peripheral neuropathy (Aley, K. O., et al., (1996) Vincristine hyperalgesia in the rat: a possible modelfor painful vincristine neuropathy in humans. Neuroscience 73:259-265; Tanner, K. D., et al., (1998) Nociceptor hyper-responsiveness during vincristine-induced painful peripheral neuropathy in the rat. J. Neuroscience 18:6480-6491; Tanner, K. D., et al., (1998) Microtubule disorientation and axonal swelling in unmyelinated sensory axons during vincristine-induced painful neuropathy in rat. J. Comp. Neurol., 395:481-492; and, Tanner, K. D., et al., (2002) Altered temporal patterning of afferent activity in a rat model of vincristine-induced peripheral neuropathy (Submitted -Neuroscience).); and, 3) alcohol-induced painful peripheral neuropathy (Dina, O. A., et al., (2000) Key role for the epsilon isoform of protein kinase C in painful alcoholic neuropathy in the rat. J. Neurosci. 20:8614-8619). In all three models, inhibition of MEK by a MEK inhibitor, PD98509, produced either a moderate (Taxol and vincristine) or profound (alcohol) reversal of the painful peripheral neuropathy. In the third model, alcohol-induced painful peripheral neuropathy, a second inhibitor of the Ras-MEK-ERK 1/2 cascade, which was MEK inhibitor U0126, was also employed.
The pain threshold in normal male and female rats was approximately 110 grams, using the Randall-Selitto paw-withdrawal test (plotted as absolute change in nociceptive threshold). Following administration of Taxol, the threshold fell to approximately 70 grams.

[5] = test system: alcohol-induced hyperalgesia; experiment: Alcohol-induced painful peripheral neuropathy, Randall-Selitto paw-withdrawal test; assay type: in vivo, rat
From the text: as §1
The pain threshold in normal rats was approximately 110 grams, using the Randall-Selitto paw-withdrawal threshold test (plotted as percentage change in nociceptive threshold). Following chronic consumption of a diet in which alcohol replaced calories, but not other nutrients, in the normal diet, the threshold fell to approximately 70 grams. […] See FIG. 13A, which illustrates results from female rats and FIG. 13B, which illustrates results from male rats.

[6] = test system: mechanical nociceptive threshold; conditions: rat, in vivo; cited from earlier work
[7] = test system: vincristine-induced hyperalgesia; experiment: Vincristine-induced painful peripheral neuropathy, Randall-Selitto paw-withdrawal test; assay type: in vivo, rat; conditions: male and female rats; normal approximately 110 grams
From the text: as §1
The pain threshold in normal male and female rats was approximately 110 grams, using the Randall-Selitto paw-withdrawal test (plotted as absolute change in nociceptive threshold). Following administration of vincristine, the threshold fell to approximately 65 grams.

Question: Which results are given for `O=S(=O)(NCCNCC=Cc1ccc(Br)cc1)c1cccc2cnccc12` [H89, N-[2-(p-bromocinnamylamino)ethyl]-5-isoquinolinesulfonamide]?
Answer: effect on epinephrine-induced mechanical hyperalgesia [1]: did not block; effect on epinephrine-induced ERK phosphorylation (ERK1/2): did not reduce; also recorded: did not block

Question: What does the source list for `Cc1ccc(OCC(O)C(C)NC(C)C)c2c1CCC2` (stereo not drawn) [ICI 118,551]?
Answer: effect on epinephrine-induced ERK phosphorylation (ERK1/2): inhibited; effect on basal ERK phosphorylation (ERK1/2; unstimulated cultures): did not inhibit

Question: For `CNC(=N)NCCC[C@H](N)C(=O)O` [L-NMA, NG-methyl-L-arginine], which “effect on epinephrine-induced hyperalgesia” value ([2]; gonadectomized female rats) is on record?
Answer: significantly antagonized

Question: What about the “effect on epinephrine-induced hyperalgesia” value ([2]; gonadectomized male rats) of the same molecule?
Answer: significantly antagonized

Question: And the “effect on epinephrine-induced hyperalgesia” value ([2]; intact female rats)?
Answer: did not have a significant effect

Question: What about the “effect on epinephrine-induced hyperalgesia” value ([2]; intact male rats) of the same molecule?
Answer: significantly antagonized

Question: What about the “effect on prostaglandin E2-induced hyperalgesia” value ([3]; both sexes, gonad-intact, inhibitor 1 μg, PGE2 100 ng intradermal) of the same molecule?
Answer: significantly blocked; also recorded: inhibited to a similar degree

Question: Which “pain threshold following administration of Taxol” value [4] does the source give for `CC(=O)O[C@H]1C(=O)[C@@]2(C)[C@H]([C@H](OC(=O)c3ccccc3)[C@]3(O)C[C@H](OC(=O)[C@H](O)[C@@H](NC(=O)c4ccccc4)c4ccccc4)C(C)=C1C3(C)C)[C@]1(OC(C)=O)CO[C@@H]1C[C@@H]2O` [Taxol] here?
Answer: approximately 70 grams

Question: With `CCO` [alcohol] as the molecule, how does the “threshold following chronic consumption of alcohol diet” value ([5]; female rats (FIG. 13A)) read?
Answer: approximately 70 grams

Question: What about the “threshold following chronic consumption of alcohol diet” value ([5]; male rats (FIG. 13B)) of the same molecule?
Answer: approximately 70 grams

Question: What about the “pain threshold following chronic consumption of alcohol diet” value ([5]; normal approximately 110 grams) of the same molecule?
Answer: approximately 70 grams

Question: Which “effect on epinephrine-induced mechanical hyperalgesia” value [1] does the source give for `C=C(C)[C@@H]1CC=C(C(=O)O)CC1` [perillic acid] here?
Answer: reduced

Question: For `Cc1ccc(N(CC2=NCCN2)c2cccc(O)c2)cc1` [phentolamine], which “effect on epinephrine hyperalgesia in the rat (previously demonstrated)” value [6] is on record?
Answer: not

Question: For `CC(C)NCC(O)COc1cccc2ccccc12` (stereo not drawn) [propranolol], which “effect on epinephrine-induced hyperalgesia” value ([2]; intact female rats) is on record?
Answer: inhibited

Question: What about the “effect on epinephrine-induced hyperalgesia” value ([2]; intact male rats) of the same molecule?
Answer: inhibited

Question: What about the “effect on epinephrine hyperalgesia in the rat (previously demonstrated)” value [6] of the same molecule?
Answer: significantly attenuated

Question: With `CCCCC[C@H](O)/C=C/[C@H]1[C@H](O)CC(=O)[C@@H]1C/C=C\CCCC(=O)O` [prostaglandin E2] as the molecule, how does the “magnitude of hyperalgesia in intact female rats vs males” value ([3]; PGE2 100 ng) read?
Answer: greater

Question: For `CC[C@]1(O)C[C@H]2CN(CCc3c([nH]c4ccccc34)[C@@](C(=O)OC)(c3cc4c(cc3OC)N(C=O)[C@H]3[C@@](O)(C(=O)OC)[C@H](OC(C)=O)[C@]5(CC)C=CCN6CC[C@]43[C@@H]65)C2)C1` [vincristine], which “pain threshold following administration of vincristine” value [7] is on record?
Answer: approximately 65 grams

Question: Which “effect on epinephrine-induced ERK phosphorylation” value (ERK1/2) does the source give for calphostin C here?
Answer: did not reduce

Question: Which “effect on epinephrine-induced mechanical hyperalgesia” value [1] does the source give for pertussis toxin here?
Answer: reduced

Question: What about the “effect on epinephrine-induced phosphorylation of ERK1/2” value (ERK1/2; pertussis toxin or 1 μM FTase I for 16 hr, then 1 μM epinephrine) of the same molecule?
Answer: prevented; also recorded: inhibit

B1: NGF: mouse 2.5 S nerve growth factor, positive control for ERK1/2 phosphorylation (protein, UniProt P01139 122-241, looked up)
Beta-nerve growth factor: SSTHPVFHMGEFSVCDSVSVWVGDKTTATDIKGKEVTVLAEVNINNSVFRQYFFETKCRASNPVESGCRGIDSKHWNSYCTTTHTFVKALTTDEKQAAWRFIRIDTACVCVLSRKATRRG
modifications: Beta-nerve growth factor
notes: mouse 2.5 S nerve growth factor, positive control for ERK1/2 phosphorylation
Question: For B1, which “ERK1/2 phosphorylation (representative Western blot)” value (ERK1/2; epinephrine for indicated times, NGF 50 ng/ml 5 min) is on record?
Answer: stimulation
